What was measured:
Type in all cases: cell-based, human
[1] = tested on: pancreatic cancer cell line MiaPaCa2; test: Soft agar assay, MiaPaCa2
Method: (§1) Cell proliferation was ascertained by soft agar assay. In brief, cells were grown within a matrix of 1.2% soft agar that contained PAR-1 inhibitor at the appropriate concentration. Plates containing cells in the soft agar were incubated at 37° C. for approximately 2 weeks until cell colonies were visible. Cells were then stained by adding 1 mg/ml MTT in PBS and incubating at 37° C. for 1-2 hours. After which the staining solution was removed and plates incubated at 4° C. for 1-2 hours to resolidify agar before scanning.

[2] = tested on: glioma cancer cell line SF295; test: Soft agar assay, SF295
Method: as §1

[3] = tested on: ovarian cancer cell line SKOV-3; test: Intracellular Ca2+ release (FLIPR) assay, SKOV-3; settings: thrombin 0.1-100 nM, FIG. 14
Method: (§2) As detailed below, intracellular Ca^2+ release was measured in various tumor cell lines treated with thrombin. Likewise, intracellular Ca^2+ release was measured in a subset of those tumor cell lines treated with thrombin and PAR-1 inhibitor Formula 2. In brief, cells were plated into a 96-well plate at a density of 4×10^4 cells per well and allowed to attach overnight at 37° C. prior to loading with Fluo-4AM. Cells were then incubated at 37° C. for 60 minutes. After washing the cells, thrombin as well as the appropriate concentration of PAR-1 inhibitor Formula 2 was added and cells incubated at 37° C. for 30 minutes prior to taking fluorescence readings.

[4] = tested on: pancreatic cancer cell line Panc1; test: Calcein AM assay, Panc1; settings: 3 days, FIG. 18
Method: (§3) Viability of cells was ascertained using the LIVE/DEAD Viability/Cytotoxicity calcein AM assay [Molecular Probes, technical bulletin MP03224] in the pancreatic cell line MiaPaCa2 and the pancreatic cancer cell line Panc1 following treatment with thrombin, or PAR-1 inhibitor in the presence or absence of thrombin (at a concentration of 10 nM). Calcein AM is a cell-permeant nonflouroescent molecule which is cleaved by esterases found within live cells to create the intensely fluorescent calcein. The polyanionic dye calcein is retained within live cells, producing an intense uniform green fluorescence which can be measured by a fluorescent multiwell plate reader to determine the actual number of live cells in each well. In brief, 1×10^4 cells per well were plated into a 96-well plate and allowed to attach overnight at 37° C. prior to treatment with serum-free media containing 10 nM thrombin as well as the appropriate concentration of PAR-1 inhibitor Formula 2 (5×10^−9; 1×10^−8; 5×10^−8; 1×10^−7; 5×10^−7; 1×10^−6; 5×10^−6; or 1×10^−5 M). Cells were then incubated at 37° C. for 3 days prior to adding Calcein AM reagent and reading fluorescence.

[5] = tested on: pancreatic cancer cell line MiaPaCa2; test: 14C-thymidine incorporation assay, MiaPaCa2; settings: 48 hours
Method: (§4) Cell growth proliferation was ascertained by measuring ^14C-thymidine incorporation in various cell lines treated with thrombin in the presence or absence of a PAR-1 inhibitor. In brief, 5×10^3 cells per well were seeded in a 96-well plate and incubated at 37° C. for 1 day. The cells were starved with serum-free medium for 1 day prior to treatment with serum-free media containing 0.5 μCi/ml ^14C-thymidine as well as PAR-1 inhibitor and/or thrombin (where applicable). The cells were then incubated at 37° C. for 48 hours prior to reading radioactivity on a beta counter (1450 Microbeta Plus, Liquid Scintillation Counter (Wallac Software, Perkin Elmer) using the program for ^14C counting on 96-well Cytostar-T scintillating microplate (Amersham Pharmacia Biotech, Piscataway, N.J.).

[6] = tested on: pancreatic cell line MiaPaCa2; test: Calcein AM assay, MiaPaCa2; settings: 3 days, FIG. 18
Method: as §3

[7] = tested on: glioma cell line U373; test: 14C-thymidine incorporation assay, U373; settings: thrombin 0.001-1000 nM, 48 hours, FIG. 16
Method: as §4

[8] = tested on: prostate cancer cell line PC-3; test: Intracellular Ca2+ release (FLIPR) assay, PC-3; settings: thrombin 0.1-100 nM, FIG. 14
Method: as §2

[9] = tested on: glioma cell line T98G; test: Intracellular Ca2+ release (FLIPR) assay, T98G; settings: thrombin 0.1-100 nM, FIG. 14
Method: as §2

[10] = tested on: glioma cell line U373; test: Intracellular Ca2+ release (FLIPR) assay, U373; settings: thrombin 0.1-100 nM, FIG. 14
Method: as §2

[11] = tested on: glioma cell line SNB19; test: Intracellular Ca2+ release (FLIPR) assay, SNB19; settings: thrombin 0.1-100 nM, FIG. 14
Method: as §2

[12] = tested on: glioma cell line U118MG; test: Intracellular Ca2+ release (FLIPR) assay, U118MG; settings: thrombin 0.1-100 nM, FIG. 14
Method: as §2

[13] = tested on: glioma cell line SF295; test: Intracellular Ca2+ release (FLIPR) assay, SF295; settings: thrombin 0.1-100 nM, FIG. 14
Method: as §2

[14] = tested on: pancreatic cancer cell line MiaPaCa2; test: Intracellular Ca2+ release (FLIPR) assay, MiaPaCa2; settings: thrombin 0.1-100 nM, FIG. 14
Method: as §2

IC50 ([1]; Homo sapiens, MIA PaCa-2, 336 h, approximately 2 weeks, FIG. 20, read-out: IC50, cell proliferation (soft agar assay)) [µM] | IC50 ([2]; Homo sapiens, SF-295, 336 h, approximately 2 weeks, FIG. 21, read-out: IC50, cell proliferation (soft agar assay)) [µM] | EC50 ([5]; read-out: EC50 of thrombin, cell proliferation (14C-thymidine incorporation)) [nM] | Compound | inhibition of cell proliferation (soft agar assay) ([1]; 0-10,000 nM, dose-dependent manner) | anti-proliferative effects ([1]; at higher doses) | inhibition of cell proliferation (soft agar assay) ([2]; 0-30,000 nM, dose-dependent manner) | anti-proliferative effects ([2]; at higher doses) | intracellular Ca2+ release stimulated by thrombin [3] | thrombin-induced cell proliferation (calcein AM) [4] | thrombin-induced cell proliferation (14C-thymidine incorporation) ([5]; thrombin 10^-4 to 10^2 nM, FIG. 17) | thrombin-induced cell proliferation (calcein AM) [6] | thrombin-induced cell proliferation (14C-thymidine incorporation) [7] | intracellular Ca2+ release stimulated by thrombin [8] | intracellular Ca2+ release stimulated by thrombin [9] | intracellular Ca2+ release stimulated by thrombin [10] | intracellular Ca2+ release stimulated by thrombin [11] | intracellular Ca2+ release stimulated by thrombin [12] | intracellular Ca2+ release stimulated by thrombin [13] | intracellular Ca2+ release stimulated by thrombin [14]
5.2 | 6.1 |  | CCOC(=O)N[C@@H]1CC[C@@H]2[C@@H](C1)C[C@H]1C(=O)O[C@H](C)[C@H]1[C@H]2/C=C/c1ccc(-c2ccccc2C#N)cn1 [Formula 3] | inhibited | modest | inhibited | modest |  |  |  |  |  |  |  |  |  |  |  | 
 |  | 0.014 | thrombin |  |  |  |  | stimulates | minimal | dose-dependent | dose-dependent | dose-dependent | stimulates | stimulates | stimulates | stimulates | stimulates | stimulates | stimulates

— US20070219154A1, “Methods for preventing and/or treating a cell proliferative disorder” (priority 2005, published 2007)
